Results published in the supplement of paper PMC5908809.

What was measured:
[1] = tested on: normal NK cells expanded with K562-aAPC; assay: drug sensitivity score (DSS) (DSS units); higher = more sensitive; extreme values may be limits of the assay; settings: 72 h; IL-2 2.5 ng/mL
Method: (§1)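 Drug sensitivity and resistance testing on K562-aAPC-expanded normal NK cells: 5 concentrations (10-fold steps over a 10,000-fold range), 72 h at 37 °C, viability by CellTiter-Glo normalised to DMSO and benzethonium chloride controls; DSS from the fitted curve.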

[2] = tested on: normal primary NK cells, pool 3 (3 donors) (IL-2 2.5 ng/mL); assay: as above; settings: 72 h
KAI3 (IL-2 2.5 ng/mL) [3] = assay: as above; settings: 72 h
[4] = tested on: normal primary NK cells, pool 1 (3 donors) (IL-2 2.5 ng/mL); assay: as above; settings: 72 h
SNK-6 (IL-2 2.5 ng/mL) [5] = assay: as above; settings: 72 h
KHYG-1 (IL-2 2.5 ng/mL) [6] = assay: as above; settings: 72 h
[7] = tested on: normal primary NK cells, pool 2 (3 donors) (IL-2 2.5 ng/mL); assay: as above; settings: 72 h
NK-92 (IL-2 2.5 ng/mL) [8] = assay: as above; settings: 72 h
YT (IL-2 2.5 ng/mL) [9] = assay: as above; settings: 72 h
DERL-7 (IL-2 2.5 ng/mL) [10] = assay: as above; settings: 72 h
[11] = tested on: normal primary NK cells, pool 1 (3 donors), resting (IL-2 0 ng/mL); assay: as above; settings: 72 h
NKL (IL-2 2.5 ng/mL) [12] = assay: as above; settings: 72 h
NK-YS (IL-2 2.5 ng/mL) [13] = assay: as above; settings: 72 h
IMC-1 (IL-2 20 ng/mL) [14] = assay: as above; settings: 72 h
[15] = tested on: normal NK cells expanded with K562-aAPC; assay: percent inhibition of viability; higher = more inhibition; settings: 72 h, IL-2 2.5 ng/mL
Method: as §1

[16] = tested on: normal primary NK cells, pool 3 (3 donors) (IL-2 2.5 ng/mL); assay: as above; settings: 72 h
KAI3 (IL-2 2.5 ng/mL) [17] = assay: as above; settings: 72 h
[18] = tested on: normal primary NK cells, pool 1 (3 donors) (IL-2 2.5 ng/mL); assay: as above; settings: 72 h
SNK-6 (IL-2 2.5 ng/mL) [19] = assay: as above; settings: 72 h
KHYG-1 (IL-2 2.5 ng/mL) [20] = assay: as above; settings: 72 h
[21] = tested on: normal primary NK cells, pool 2 (3 donors) (IL-2 2.5 ng/mL); assay: as above; settings: 72 h
NK-92 (IL-2 2.5 ng/mL) [22] = assay: as above; settings: 72 h
YT (IL-2 2.5 ng/mL) [23] = assay: as above; settings: 72 h
DERL-7 (IL-2 2.5 ng/mL) [24] = assay: as above; settings: 72 h
[25] = tested on: normal primary NK cells, pool 1 (3 donors), resting (IL-2 0 ng/mL); assay: as above; settings: 72 h
NKL (IL-2 2.5 ng/mL) [26] = assay: as above; settings: 72 h
NK-YS (IL-2 2.5 ng/mL) [27] = assay: as above; settings: 72 h
IMC-1 (IL-2 20 ng/mL) [28] = assay: as above; settings: 72 h

COc1ncc(-c2ccc3nccc(-c4ccnnc4)c3c2)cc1NS(=O)(=O)c1ccc(F)cc1F [Omipalisib] (max concentration tested 1000 nM)
Settings	drug sensitivity score
DERL-7 (IL-2 2.5 ng/mL) [10]	21
IMC-1 (IL-2 20 ng/mL) [14]	0.6
KAI3 (IL-2 2.5 ng/mL) [3]	12.9
KHYG-1 (IL-2 2.5 ng/mL) [6]	9.7
NK-92 (IL-2 2.5 ng/mL) [8]	14.8
NK-YS (IL-2 2.5 ng/mL) [13]	11.7
NKL (IL-2 2.5 ng/mL) [12]	11.4
SNK-6 (IL-2 2.5 ng/mL) [5]	7.24
YT (IL-2 2.5 ng/mL) [9]	13.7
[1]	10.6
[2]	2.64
[4]	5.18
[7]	7.36
[11]	6.75

percent inhibition of viability [%]
Settings	0.1 nM	1 nM	10 nM	100 nM	1000 nM
DERL-7 (IL-2 2.5 ng/mL) [24]	1.39	16.9	45.5	77.3	95.7
IMC-1 (IL-2 20 ng/mL) [28]	-0.58	-1.71	-11.8	-32.5	29.1
KAI3 (IL-2 2.5 ng/mL) [17]	2.3	36.1	15.3	35.5	62.9
KHYG-1 (IL-2 2.5 ng/mL) [20]	1.89	1.24	8.6	40.2	91.6
NK-92 (IL-2 2.5 ng/mL) [22]	3.62	20.4	32.1	48.6	69.9
NK-YS (IL-2 2.5 ng/mL) [27]	-0.6	1.69	13.2	53.7	73.3
NKL (IL-2 2.5 ng/mL) [26]	-9.37	0.19	6.59	54.9	80.4
SNK-6 (IL-2 2.5 ng/mL) [19]	8.44	2.37	-0.31	30.5	61.5
YT (IL-2 2.5 ng/mL) [23]	-0.94	1.51	27.5	54.4	79.8
[15]	3.51	3.67	20.4	44.6	55.5
[16]	-11.3	-2.43	7.07	5.39	36.4
[18]	-10	-4.5	18.5	20.1	40
[21]	-6.47	2.05	24.7	24.7	47.5
[25]	2.21	9.83	13.8	26.6	49.1

Cc1cc(C(C)Nc2ccccc2)c2nc(N3CCOCC3)cc(=O)n2c1 (configuration not stated) [TGX-221] (max concentration tested 10000 nM)
Settings	drug sensitivity score
DERL-7 (IL-2 2.5 ng/mL) [10]	1.37
IMC-1 (IL-2 20 ng/mL) [14]	0
KAI3 (IL-2 2.5 ng/mL) [3]	1.55
KHYG-1 (IL-2 2.5 ng/mL) [6]	0
NK-92 (IL-2 2.5 ng/mL) [8]	6.45
NK-YS (IL-2 2.5 ng/mL) [13]	1.43
NKL (IL-2 2.5 ng/mL) [12]	2.96
SNK-6 (IL-2 2.5 ng/mL) [5]	0
YT (IL-2 2.5 ng/mL) [9]	2.28
[1]	2.2
[2]	0.14
[4]	1.93
[7]	2
[11]	4.9

percent inhibition of viability [%]
Settings	1 nM	10 nM	100 nM	1000 nM	10000 nM
DERL-7 (IL-2 2.5 ng/mL) [24]	0.96	-2.74	-1.99	1.82	27.4
IMC-1 (IL-2 20 ng/mL) [28]	-6.36	-5.05	-4.93	-4.5	-0.86
KAI3 (IL-2 2.5 ng/mL) [17]	-3.13	-6.25	-6.02	4.84	23.6
KHYG-1 (IL-2 2.5 ng/mL) [20]	2.88	11.7	4.06	7.54	14.4
NK-92 (IL-2 2.5 ng/mL) [22]	2.02	4.62	5.66	32.2	31.8
NK-YS (IL-2 2.5 ng/mL) [27]	-2.78	-1.69	-1.28	2.25	27.1
NKL (IL-2 2.5 ng/mL) [26]	2.96	0.41	10.3	15.5	28
SNK-6 (IL-2 2.5 ng/mL) [19]	31	21.5	15.7	15.3	-7.08
YT (IL-2 2.5 ng/mL) [23]	-1.99	2.32	1.97	11.6	28.1
[15]	-0.66	0.04	5.39	4.41	32.4
[16]	-7.93	-8.91	-2.84	3.04	11.7
[18]	-13.5	-0.76	-6.33	4.04	29.7
[21]	-16.6	-10.3	-4.51	4.63	29.4
[25]	-4.4	0.78	-11.3	14.5	51.2

S=c1[nH]cnc2nc[nH]c12 [Mercaptopurine] (max concentration tested 10000 nM)
Settings	drug sensitivity score
DERL-7 (IL-2 2.5 ng/mL) [10]	4.05
IMC-1 (IL-2 20 ng/mL) [14]	8.45
KAI3 (IL-2 2.5 ng/mL) [3]	3.99
KHYG-1 (IL-2 2.5 ng/mL) [6]	9.71
NK-92 (IL-2 2.5 ng/mL) [8]	8.34
NK-YS (IL-2 2.5 ng/mL) [13]	11.6
NKL (IL-2 2.5 ng/mL) [12]	0
SNK-6 (IL-2 2.5 ng/mL) [5]	19.7
YT (IL-2 2.5 ng/mL) [9]	8.11
[1]	0.11
[2]	0
[4]	0
[7]	0
[11]	0

percent inhibition of viability [%]
Settings	1 nM	10 nM	100 nM	1000 nM	10000 nM
DERL-7 (IL-2 2.5 ng/mL) [24]	-4.35	-1.44	0.98	9.85	47
IMC-1 (IL-2 20 ng/mL) [28]	-3.21	-3.47	2.38	21.7	91.4
KAI3 (IL-2 2.5 ng/mL) [17]	-5.39	-4.2	-7.01	6.69	53.7
KHYG-1 (IL-2 2.5 ng/mL) [20]	-2.69	-0.22	5.34	30	99.3
NK-92 (IL-2 2.5 ng/mL) [22]	-10.3	-10.7	12.1	38.5	53.5
NK-YS (IL-2 2.5 ng/mL) [27]	-2.27	-1.87	9.74	52.6	90.4
NKL (IL-2 2.5 ng/mL) [26]	-15.5	0	-11.9	-4.76	6.22
SNK-6 (IL-2 2.5 ng/mL) [19]	11.4	16.1	38.4	75.4	94.4
YT (IL-2 2.5 ng/mL) [23]	-0.59	-2.35	3.64	24.6	81.8
[15]	-5.16	4.06	-1.48	3.65	11.2
[16]	-16.8	-9.02	-3.33	-7.89	8.16
[18]	-1.1	-6.11	-2.9	-10.7	0.61
[21]	-14.1	-7.32	-6.91	-13.4	3.06
[25]	-2.87	-18.3	-8.34	-34.9	-22.3
